For assay [1], the system named is NCI-N87 human gastric cancer cells. Description: Comparative study of the activity of camptothecins (CCK-8 cell killing). Type of assay: cell-based. Here is the method:
(§1) KB oral epithelial cancer cells (purchased from: ATCC) were cultured in DMEM medium supplemented with 10% FBS; NCI-N87 human gastric cancer cells (purchased from: ATCC) were cultured in RPMI1640 medium supplemented with 10% FBS; HT29 human colon cancer cells (purchased from: ATCC) were cultured in RPMI1640 medium supplemented with 10% FBS; and BxPC-3 human pancreatic adenocarcinoma cells (purchased from: ATCC) were cultured in RPMI1640 medium supplemented with 10% FBS.
(§2) Using corresponding media described above and in cell plates, the density of KB cells was adjusted to 2×10^4/mL; the density of NCI-N87 cells was adjusted to 5×10^4/mL; the density of HT29 cells was adjusted to 5×10^4/mL, and the cells were plated onto 96-well transparent flat bottom plates, at 100 µL/well, and cultured overnight; and the density of BxPC-3 cells was adjusted to 5×10^4/mL.
(§3) Samples to be detected were diluted to 20 μM with corresponding media, then 5-fold gradient dilution was performed, and 9 concentrations were obtained. A well having cells but with no any sample added was set as the well showing maximum cell growth; and a well having no cells was set as the well of medium background. The diluted samples were added into the cell plates, at 100 μL/well, which were then incubated in a C02 incubator for 96 hours. After the incubation, CCK-8 (purchased from: DOJINDO LABORATORIES) prepared beforehand was added into the plates, at 20 μL/well, and after further 3 hours incubation in the C02 incubator, […] were read on a microplate reader.
(§4) Data obtained was fitted to a four-parameter curve using software Prism7, and equation for calculating maximum killing is: maximum killing (%)=1−(OD450 value of the well showing maximum killing—OD450 value of the well of medium background)/(OD450 value of the well showing maximum cell growth—OD450 value of the cell of medium background)[…].

For assay [2], the system named is BxPC-3 human pancreatic adenocarcinoma cells. The description is as above. Type of assay: cell-based. The following applies: for Emax: read-out: Maximum Killing (%), BxPC-3, killing days 4 days. As for the experimental part: as §1, §2, §3, §4
Assay [3] deals with HT29 human colon cancer cells. The description is as above. Type of assay: cell-based. The following applies: HT29, killing days 4 days. Here is the method:
as §1, §2, §3, §4

Assay [4] relates to KB oral epithelial cancer cells. Described as above. Type of assay: cell-based. Conditions: killing days 4 days. Here is the method:
as §1, §2, §3, §4

Assay [5] addresses T1, Trop-2 on BxPC-3 cells (human, UniProt P09758 27-323).
T1 construct: whole, on cells; also called Trop-2-positive BxPC-3 tumor cells
T1 sequence (looked up): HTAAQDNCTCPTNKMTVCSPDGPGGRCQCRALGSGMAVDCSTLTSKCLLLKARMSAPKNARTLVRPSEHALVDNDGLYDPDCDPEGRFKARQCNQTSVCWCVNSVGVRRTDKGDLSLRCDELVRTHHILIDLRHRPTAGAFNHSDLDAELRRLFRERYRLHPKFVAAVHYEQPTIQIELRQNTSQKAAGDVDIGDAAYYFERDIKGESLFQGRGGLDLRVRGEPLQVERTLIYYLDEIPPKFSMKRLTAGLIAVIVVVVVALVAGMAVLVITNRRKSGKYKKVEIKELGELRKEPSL
Kind of assay: flow cytometry, fluorescently labeled drug on BxPC-3 cells, on ice 1 h (mean ± SD, n = 2). Here is the method: (§5) Different concentrations (1, 3, 10, 30, 100, 300, 1000, 3000, 10000, 30000, and 100000 ng/mL) of fluorescently labeled Trop2-ADC-14 and the mAb in Trop2-ADC-14 (i.e., antibody h23-12) were incubated with BxPC-3 cells (purchased from: ATCC) on ice for 1 hour in dark, and then the cells were centrifuged to remove supernatant, washed with PBS, re-suspended, and the fluorescence intensity of the drugs bound to the cells was measured with a flow cytometer (BD ACCURI C6 PLUS). The experiment was repeated once.

For assay [6], the target named is T1, Trop-2 on BxPC-3 cells. Kind of assay: flow cytometry, fluorescently labeled antibody on BxPC-3 cells, on ice 1 h (mean ± SD, n = 2). Here is the method: as §5
Where [7] appears, read: Homo sapiens, NCI-N87, 96 h, read-out: Maximum Killing (%), NCI-N87, killing days 4 days.
[8] abbreviates: Homo sapiens, BXPC-3, 96 h, BxPC-3, killing days 4 days.

We go through 19 molecules from patent publication US20250059201A1, “CAMPTOTHECIN COMPOUND AND CONJUGATE THEREOF” (priority 2021, published 2025).

“And” between values parts separate entries of the source, which are not always exact repeats. Equal values may be shown once. Read-outs that look alike come from different tables or passages of the source.

For `CC[C@@]1(O)C(=O)OCc2c1cc1n(c2=O)Cc2c-1nc1ccc(N)c3c1c2C(C)(C)CC3` [Compound 1], in assay [1] (setting [7]), the Emax came to 92.1%.
Consider `CC[C@@]1(O)C(=O)OCc2c1cc1n(c2=O)Cc2c-1nc1ccc(N)c3c1c2C1CC1C3` (some centres unmarked) [Compound 7], for which the Emax in assay [2] (Homo sapiens, BXPC-3, 96 h) amounted to 94.4%; in assay [1] (setting [7]), 87.9%.
For the molecule `CC[C@@]1(O)C(=O)OCc2c1cc1n(c2=O)Cc2c-1nc1ccc(N)c3c1c2CCS3` [Compound 12], the Emax in assay [2] (Homo sapiens, BXPC-3, 96 h) was determined as 98.5%; in assay [1] (setting [7]) it was 94.9%.
`CC[C@@]1(O)C(=O)OCc2c1cc1n(c2=O)Cc2c-1nc1ccc(N)c3c1c2C(F)(F)CS3` [Compound 13] came in with an EC50 in assay [2] (setting [8]) of 1.41 nM. The Emax in assay [2] (Homo sapiens, BXPC-3, 96 h) was determined as 98.9%.
As for `CC[C@@]1(O)C(=O)OCc2c1cc1n(c2=O)Cc2c-1nc1ccc(N)c3c1c2CC[S@+]3[O-]` [Compound 14-P1], the Emax in assay [2] (Homo sapiens, BXPC-3, 96 h) turned out to be 38.8%; in assay [1] (setting [7]), 42.5%.
As to `CC[C@@]1(O)C(=O)OCc2c1cc1n(c2=O)Cc2c-1nc1ccc(N)c3c1c2CC[S@@+]3[O-]` [Compound 14-P2], the Emax in assay [2] (Homo sapiens, BXPC-3, 96 h) came to 43.3%; in assay [1] (setting [7]) it was 68.4%.
For `CC[C@@]1(O)C(=O)OCc2c1cc1n(c2=O)Cc2c-1nc1ccc(N)c3c1c2CCO3` [Compound 14], in assay [2] (setting [8]), it took 6.46 nM to reach a half-maximal effect (EC50). The Emax in assay [2] (Homo sapiens, BXPC-3, 96 h) amounted to 84.7%.
Regarding `CC[C@@]1(O)C(=O)OCc2c1cc1n(c2=O)Cc2c-1nc1ccc(N)c3c1c2CCS3(=O)=O` [Compound 15], the Emax turned out to be 87.9% in assay [2] (Homo sapiens, BXPC-3, 96 h) and 83.6% in assay [1] (setting [7]).
For the molecule `CCC1(O)CC(=O)OCc2c1cc1n(c2=O)Cc2c-1nc1ccc(N)c3c1c2CCC3` (centres unmarked) [Compound 17], in assay [1] (Homo sapiens, 96 h, NCI-N87, killing days 4 days, read-out: EC50), the EC50 is 7.43 nM. The Emax in assay [1] (Homo sapiens, 96 h, NCI-N87, killing days 4 days, read-out: Maximum Killing (%)) is 87.6%.
As for `CC[C@@]1(O)C(=O)OCc2c1cc1n(c2=O)Cc2c-1nc1cc(F)c(N)c3c1c2CCO3` [Compound 18], the Emax in assay [2] (Homo sapiens, BXPC-3, 96 h) was 99.6%; in assay [1] (setting [7]) it was 92.9%.
As to `CC[C@@]1(O)C(=O)OCc2c1cc1n(c2=O)Cc2c-1nc1cc(F)c(N)c3c1c2C(F)(F)CO3` [Compound 19], the Emax in assay [2] (Homo sapiens, BXPC-3, 96 h) was determined as 97.4%.
On to `CC[C@@]1(O)C(=O)OCc2c1cc1n(c2=O)Cc2c-1nc1cc(F)c(N)c3c1c2C(F)(F)CC3` [Compound 20], for which the EC50 in assay [2] (setting [8]) was determined as 0.683 nM; in assay [1] (Homo sapiens, NCI-N87, 96 h, NCI-N87, killing days 4 days), 0.059 nM. Besides, the Emax in assay [2] (Homo sapiens, BXPC-3, 96 h) turned out to be 99.2%; in assay [1] (setting [7]), 93.2%.
Take `CC[C@@]1(O)C(=O)OCc2c1cc1n(c2=O)Cc2c-1nc1cc(F)c(N)c3c1c2CCS3` [Compound 26]: the Emax in assay [2] (Homo sapiens, BXPC-3, 96 h) worked out at 99.1%; in assay [1] (setting [7]), 93.4%.
In the same order, the values of `CC[C@@]1(O)C(=O)OCc2c1cc1n(c2=O)Cc2c-1nc1cc(F)c(N)c3c1c2C(F)(F)CS3` [Compound 27] are 97.7% and 90.6%.
`CC[C@@]1(O)C(=O)OCc2c1cc1n(c2=O)Cc2c-1nc1ccc(N)c3c1c2C(F)(F)CO3` [Compound 31]: the Emax in assay [2] (Homo sapiens, BXPC-3, 96 h) turned out to be 93.7%; in assay [1] (setting [7]), 90.7%.
On to `CC[C@@]1(O)C(=O)OCc2c1cc1n(c2=O)Cc2c-1nc1cc(F)c(C)c3c1c2[C@@H](NC(=O)CO)CC3` [Dxd], for which the EC50 in assay [3] was 127 nM and 133 nM; in assay [2] (BxPC-3, killing days 4 days, read-out: EC50) it was 24.3 nM. The “Maximum Killing (%)” value in assay [3] was 87.4% and 85.4%; in assay [2] (BxPC-3, killing days 4 days) it was 91.8%; in assay [1] (NCI-N87, killing days 4 days) it was 92.8% and 92.7% and 94.6%; in assay [4], 94.7% and 94.9%.
For the molecule `CC[C@@]1(O)C(=O)OCc2c1cc1n(c2=O)Cc2c-1nc1ccc(N)c3c1c2CCC3` [MWC-1, reference compound], the EC50 in assay [3] amounted to 8.68 nM; in assay [3] (Homo sapiens, HT-29, 96 h), 9.89 nM; in assay [1] (Homo sapiens, NCI-N87, 96 h, NCI-N87, killing days 4 days, read-out: EC50), 4.44 nM; in assay [1] (NCI-N87, killing days 4 days, read-out: EC50) it was 5.22 nM; in assay [4] (96 h), 14.8 nM. In assay [1] (setting [7]), the Emax is 93.4%.

B1: Trop2-ADC-14 (antibody, human IgG1, kappa, V domains shown)
VH: QVQLVQSGAEVKKPGASVKVSCKASGYTFTSYWMHWVRQAPGQGLEWMGEITPSDNYGSYNQKFKGRVTITRDTSTSTAYMELSSLRSEDTAVYYCARGHGNYVSFDYWGQGTLVTVSS
VL: DIQMTQSPSSLSASVGDRVTITCRASQDISNYLNWYQQKPGKAPKLLIYYTSRLESGVPSRFSGSGSGTDFTLTISSLQPEDFATYFCQQGYTLPPYTFGQGTKLEIKR
modifications: drug-containing linker MWF-L6 (Compound 3 payload) bridged on cysteines of the reduced disulfide bonds, DAR 4.1; positions not given
notes: Antibody-drug conjugate: antibody h23-12 with MWF-L6, site-specific bridged conjugation, DAR 4.1; also called ADC 1o; h23-12 conjugated with drug-containing linker MWF-L6
The molecule B1 displayed an EC50 in the assay with Trop-2 on BxPC-3 cells [5] of 1.3 µg/mL.

B2: Antibody h23-12 (antibody, human IgG1, kappa, V domains shown)
VH: QVQLVQSGAEVKKPGASVKVSCKASGYTFTSYWMHWVRQAPGQGLEWMGEITPSDNYGSYNQKFKGRVTITRDTSTSTAYMELSSLRSEDTAVYYCARGHGNYVSFDYWGQGTLVTVSS
VL: DIQMTQSPSSLSASVGDRVTITCRASQDISNYLNWYQQKPGKAPKLLIYYTSRLESGVPSRFSGSGSGTDFTLTISSLQPEDFATYFCQQGYTLPPYTFGQGTKLEIKR
notes: Monoclonal antibody; also called the mAb in Trop2-ADC-14; anti-Trop-2 antibody h23-12
In the case of B2, the EC50 with Trop-2 on BxPC-3 cells [6] turned out to be 1.14 µg/mL.
